One assay has as its target T1, human plasma renin (Homo sapiens, UniProt P00797).
T1 construct: Further assays measured human plasma renin and dog plasma renin; from tissue; host or cells: human plasma
T1 sequence (P00797 67-406): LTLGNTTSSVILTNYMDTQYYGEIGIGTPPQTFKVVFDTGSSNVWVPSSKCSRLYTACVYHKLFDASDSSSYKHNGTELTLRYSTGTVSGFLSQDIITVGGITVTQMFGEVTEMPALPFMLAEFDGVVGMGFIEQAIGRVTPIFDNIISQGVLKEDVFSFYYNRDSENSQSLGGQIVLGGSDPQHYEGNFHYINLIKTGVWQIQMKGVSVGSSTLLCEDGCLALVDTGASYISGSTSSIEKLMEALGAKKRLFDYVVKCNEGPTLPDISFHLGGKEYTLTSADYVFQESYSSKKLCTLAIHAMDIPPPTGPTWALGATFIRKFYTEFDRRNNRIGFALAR
As to the kind of experiment: Human plasma renin assay. It is filed as biochemical. Conditions: read-out: Renin Inhibition Human Plasma I50. As for the experimental part:
(§1) Assays were carried out in order to determine the inhibitory potency of the peptides of the present invention. One assay measured the inhibition of hog kidney renin, and was in accordance with the procedure described in Rich et al., J. Med. Chem. 23: 27, 1980, except that a pH of 7.3 was used. Another assay measured the inhibition of human kidney renin purified as described in Bangham, D. R., Robertson, I., Robinson, J. I. S., Robinson, C. J., and Tree, M., Clinical Science and Molecular Medicine, 48 (Supp. 2): 136s-159s (1975), and further purified by affinity chromatography on pepstatin-aminohexyl-Sepharase as described in Poe, M., Wu., J. K., Florance, J. R., Radkey, J. A., Bennett, C. D., and Hoogsteen, K., J. Biol. Chem. 258: 2209-2216 (1983). The assay was also in accordance with Poe et al. cited above. Further assays measured human plasma renin and dog plasma renin in accordance with procedures described in Boger et al., Nature, 303: 81-84 (1983).

A further assay has as its target T2, human kidney renin (Homo sapiens, UniProt P00797).
T2 construct: human kidney renin purified as described in Bangham; from tissue; host or cells: human kidney
T2 sequence (P00797 67-406): T1 sequence (P00797 67-406)
As to the kind of experiment: Inhibition of purified human kidney renin. Type of assay: biochemical. Conditions: dissociation constant of the inhibited enzyme inhibitor complex. As for the experimental part:
as §1
Results expressed as KI values refer to the dissociation constant of the inhibited enzyme inhibitor complex. This KI value was obatined as described above. Pepstatin was used as an active control.

In a further assay the target is T3, dog plasma renin (Canis lupus familiaris, UniProt Q6DYE7).
T3 construct: Further assays measured human plasma renin and dog plasma renin; from tissue; host or cells: dog plasma
T3 sequence (Q6DYE7 66-403): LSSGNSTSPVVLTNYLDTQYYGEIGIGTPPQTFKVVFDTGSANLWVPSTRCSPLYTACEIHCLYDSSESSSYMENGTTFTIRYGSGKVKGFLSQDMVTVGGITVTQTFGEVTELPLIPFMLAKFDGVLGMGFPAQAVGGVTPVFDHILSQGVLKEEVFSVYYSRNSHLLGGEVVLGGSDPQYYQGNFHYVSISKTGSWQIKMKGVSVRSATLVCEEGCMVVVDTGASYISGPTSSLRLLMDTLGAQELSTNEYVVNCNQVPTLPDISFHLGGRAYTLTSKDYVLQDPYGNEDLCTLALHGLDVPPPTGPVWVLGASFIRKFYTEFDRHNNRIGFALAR
As to the kind of experiment: Dog plasma renin assay. Type of assay: biochemical. Conditions: for IC50: read-out: Renin Inhibition Dog Plasma I50. On the procedure: as §1

A further assay deals with hog kidney renin. As to the kind of experiment: Inhibition of hog kidney renin. Conditions: pH 7.3; read-out: Renin Inhibition Hog Kidney I50. It is filed as biochemical. As for the experimental part:
as §1

In the next assay the test system is nephrectomized rats. Conditions: after the injection of hog renin into nephrectomized rats; Gross et al.; cited from earlier work.
For another assay, the system named is acid proteases. The settings on record: cited from earlier work.

Data on five compounds can be found in patent publication US4663310A, “Renin inhibitors containing 2-substituted statine” (Merck & Co., Inc., priority 1984, dated 1987).

Starred links: 1 amine or outer side, 2 acyl side, 3 side chain; linkers in the order of their positions; H or OH if unused. Non-standard residues stand in square brackets, D forms with d. Residues, ends and D or L forms follow the SMILES beside them. *: point of attachment. X1 = CC(C)CC(C(=O)[*:2])[C@H](O)[C@H](CC(C)C)N[*:1]; Isobutyryl = CC(C)C(=O)*

What is called Ki is a measure of affinity in units of concentration, obtained from inhibition or displacement. Low readings indicate a stronger hold on the target, high ones a looser hold on the target. For the compound `CC(C)C[C@H](NC(=O)[C@H](CC(C)C)[C@H](O)[C@H](Cc1ccccc1)NC(=O)[C@H](Cc1c[nH]cn1)NC(=O)[C@H](Cc1ccccc1)NC(=O)OC(C)(C)C)C(=O)NCc1ccccc1` [BOCPheHis(2- -i-Bu)AHPPALeu, tert-Butyloxycarbonyl-L-phenylalanyl-L-histidyl-4(S)-amino-3(S)-hydroxy-2(R)-iso-butyl-5-phenylpentanoyl-L-leucyl-benzylamide], the IC50 was found to be 8.2 nM on human plasma renin and 3.5 nM at dog plasma renin. On human kidney renin, this compound displayed a Ki of 9.3 nM.
`CC(C)C[C@H](NC(=O)[C@H](CC(C)C)[C@H](O)[C@H](CC(C)C)NC(=O)[C@H](Cc1c[nH]cn1)NC(=O)[C@H](Cc1ccccc1)NC(=O)OC(C)(C)C)C(=O)NCc1ccccc1` [BOCPheHis(2- -i-Bu)StaLeu] returned an inhibition constant (Ki) at human kidney renin of 10 nM. Moreover, the “Renin Inhibition Dog Plasma % I” value at dog plasma renin (I 10^-6) came to 0%.
As to `CC(C)CC[C@@H](C(=O)N[C@@H](CC(C)C)C(=O)NCc1ccccc1)[C@H](O)[C@H](Cc1ccccc1)NC(=O)[C@H](Cc1c[nH]cn1)NC(=O)[C@H](Cc1ccccc1)NC(=O)OC(C)(C)C` [BOCPheHis(2- -i-Pent)AHPPALeu], the IC50 came to 65 nM at human plasma renin and 6.2 nM on dog plasma renin. This compound yielded a Ki at human kidney renin of 4.4 nM.
Regarding `CC(C)CC(C(=O)N[C@@H](CC(C)C)C(=O)N[C@@H](Cc1ccccc1)C(N)=O)[C@H](O)[C@H](CC(C)C)NC(=O)[C@H](Cc1ccccc1)NC(=O)[C@H](Cc1ccccc1)NC(=O)[C@@H]1CCCN1C(=O)[C@H](Cc1c[nH]cn1)NC(=O)C(C)C` (some centres unmarked) [IBUHisProPhePhe(2- -i-Bu)StaLeuPheNH2] (Isobutyryl-HPFF[X1]LF-NH2), the IC50 in the assay on hog kidney renin came to 22 nM.
In the case of Pepstatin, the “blood pressure in vivo” value with nephrectomized rats was “reduce blood pressure”. Further, in the assay on acid proteases, the “inhibition of other acid proteases (selectivity)” value was “inhibition of a variety of other acid proteases in addition to renin”.
